Molecules are shown by their SMILES.

The assay addresses transcription apparatus of the influenza virus (Influenza A virus, UniProt P03433). The assay can be described thus: in vitro influenza transcription assay. The format is biochemical.
The term IC50 denotes the midpoint of a concentration-inhibition curve. A high value points to a need for much substance. As to `CC(C)/C=C1\N=C(CC(C)C)C(=O)N(O)C1=O` [Compound I, 1-(N-hydroxy)-3-(2-methyl-propyl)-5-(2-methyl-Z-prop-1-enyl)-2,6-diketopiperazine-3,4-ene], the midpoint of inhibition, the IC50, lay at 5 µM and the “IC50 in flu transcription assay (compared with the natural product)” value is “same IC50”.

With `CC(C)CC1=N/C(=C\c2ccccc2)C(=O)N(O)C1=O` [Example 8, 1-(N-hydroxy)-3-(2-methyl-propyl)-5-(Z-benz-1-enyl)-2.6-diketopiperazine-3,4-ene], half-maximal inhibition (IC50) required 4.8 µM.

`CC(C)CC1=N/C(=C\c2ccc(F)cc2)C(=O)N(O)C1=O` [Example 9, 1-(N-hydroxy)-3-(2-methyl-propyl)-5-(Z-p-fluorobenz-1-enyl)-2.6-diketopiperazine-3.4-ene] yielded an IC50 of 0.9 µM.

As for `CC(C)CC1=N/C(=C\c2ccccc2F)C(=O)N(O)C1=O` [Example 10, 1-(N-hydroxy)-3-(2-methyl-propyl)-5-(Z-o-fluorobenz-1-enyl)-2,6-diketopiperazine-3,4-ene], 7.3 µM corresponded to half-maximal inhibition (IC50). This IC50 is about 8.1-fold higher than that of the molecule before.

`CC(C)CC1=N/C(=C\c2cccc(F)c2)C(=O)N(O)C1=O` [Example 11, 1-(N-hydroxy)-3-(2-methyl-propyl)-5-(Z-m-fluorobenz-1-enyl)-2,6-diketopiperazine-3,4-ene] yielded an IC50 of 1.5 µM. Against the preceding molecule, the IC50 is about 4.9-fold lower.

As to `COc1ccc(/C=C2\N=C(CC(C)C)C(=O)N(O)C2=O)cc1` [Example 12, 1-(N-hydroxy)-3-(2-methyl-propyl)-5-(Z-p-methoxybenz-1-enyl)-2,6-diketopiperazine-3,4-ene], the IC50 amounted to 0.8 µM.

For the molecule `COc1ccc(/C=C2\N=C(Cc3ccccc3)C(=O)N(O)C2=O)cc1` [Example 14, 1-(N-hydroxy)-3-(benzyl)-5-(Z-p-methoxybenz-1-enyl)-2,6-diketopiperazine-3,4-ene], the half-maximal inhibitory concentration (IC50) came to 2.8 µM.

For the molecule `O=C1C(Cc2ccccc2)=N/C(=C\c2ccc(F)cc2)C(=O)N1O` [Example 15A, 1-(N-hydroxy)-3-(benzyl)-5-(Z-p-fluoro-benz-1-enyl)-2,6-diketopiperazine-3,4-ene], inhibition was half-maximal at 3.5 µM (IC50).

In the case of `O=C1C(Cc2ccc(F)cc2)=N/C(=C\c2ccccc2)C(=O)N1O` [Example 15B], the IC50 was determined as 6.5 µM.

In the case of `CC(C)CC1NC(Cc2ccc(F)cc2)C(=O)N(O)C1=O` (centres unmarked) [Example 16], the IC50 came to 85 µM. This IC50 is about 13-fold higher than that of the molecule before.
